# Results as given in patent publication US12343326B2, “Psychoactive medicines and their use for treating psychiatric and neurological conditions and disorders” (Transcend Therapeutics, Inc., priority 2021, dated 2025).
# What was measured:
# participants with PTSD = experiment: IMPACT-1 Part A open-label study of methylone for PTSD; type: in vivo, human
# Excerpt: Brief Summary: This is a two-part study to assess methylone for the management of the symptoms of PTSD. Part A is an open-label, non-controlled assessment in up to 15 evaluable participants with PTSD to assess early safety and efficacy and to confirm procedures included in the blinded portion (Part B) of the study. After completion of Part A, enrollment for Part B will begin in up to 64 participants. Part B is identical to Part A with the exception of the inclusion of a placebo arm in Part B.
# For each participant in Parts A and B, the study consists of: • Screening Period (Day −28 to Day −4): Informed consent, eligibility assessment, and enrolment of eligible participants. • Baseline/Preparatory Session (Day −3 to Day −1): Baseline assessments, confirmation of eligibility, and a preparatory psychoeducation session leading to enrolment confirmation. • Treatment Period (Day 1 to Day 24): Four weekly dose sessions, with associated remote sessions. The dose sessions last at least 8 hours, or until all effects (physical and psychological) have resolved (whichever is longer). Each dose session is followed by a safety phone call 1 day after dosing and efficacy assessments 2 days after dosing. Each dosing period is video recorded for quality and training purposes. The videos may be reviewed to ensure the Mentor is adhering to the Mentor training. • Follow-Up Period (Day 29 to Day 64): Follow-Up visits for safety and efficacy occur at 1, 2, 3 and 6 weeks post-final study drug administration. In addition, there are Mentor-Led Reflection Sessions 1, 2 and 3 weeks post-final study drug administration. Participants are contacted via telephone on Day 57 (±2 days) for Follow-Up. • Discontinuations: Participants who discontinue prematurely are asked to return for an extra visit to duplicate the 6-week end-of-study (EOS) visit.
# Each dose was given as an initial dose, followed by a second dose 90 minutes later. During the dosing session, participants were accompanied by a trained Mentor who provided non-directive support. After the 4-week treatment period, participants attended follow-up visits at 1, 2, 3, and 6 weeks following the last dose. Safety was assessed via standard measures including adverse events. PTSD symptoms were assessed via Clinician-Administered PTSD Scale for DSM-5 (CAPS-5), depressive symptoms were assessed via Montgomery-Asberg Depression Rating Scale (MADRS). Anti-anxiety efficacy was evaluated using the Anxiety Sub-Scale of MADRS, namely, questions (Items 3, 4, 5, 6) that address four anxiety items (inner tension, reduced sleep, reduced appetite, concentration difficulties) Changes from baseline were analyzed using a paired t-test p-values.
# Methods: The IMPACT-1 study is a multi-center, two-part clinical trial. Part A has completed and was an open-label evaluation involving 14 participants with PTSD. Eligible participants are adults with severe PTSD (CAPS-5≥35) who had failed at least 1 prior treatment (pharmacotherapy and/or psychotherapy) for PTSD. […] Throughout each dosing session, participants were provided non-directive psychological support by a trained mental health practitioner. Following the 4-week treatment period, participants were followed for an additional 6 weeks to evaluate the durability of the therapeutic effect. PTSD symptom improvement was evaluated on the CAPS-5. Functioning was assessed via the 3 domains (school/work, family life, social life) of the Sheehan Disability Scale (SDS). Global improvement was measured by the CGI-I. Safety was assessed by monitoring adverse events, vital signs, and C-SSRS.
# Following the 4-week treatment period, participants were followed for an additional 6 weeks to evaluate the durability of the therapeutic effect. […]
# rats = experiment: Open field test (OFT); type: in vivo, rat; conditions: for time spent in the center of the open field vs. vehicle: single dose 5 or 15 mg/kg IP (text), 5-30 mg/kg (FIG. 11A), 30 minutes before testing
# Procedure: This behavioral assay, also widely used as an anxiety paradigm, capitalizes on a rodent's innate fear of brightly lit open spaces, which are assumed to induce fear or anxiety. Rodents spend more time hugging the walls of the open field during the test, and these effects correlate to underlying brain regions and mechanisms.
# Method: Consecutive beam breaks and/or video-tracking of time spent in the center versus periphery of the open field are measured. Also measured are parameters such as distance traveled and ambulatory activity (horizontal and vertical) for the duration of the test session.
# The open field test (OFT) capitalizes on a rodent's innate fear of open spaces to assess anxiety-like behavior. More time spent in the center of an open field reflects an anxiolytic (anti-anxiety) effect.
# Locomotor activity was also measured in the OFT.
# To investigate whether MBDB has an anti-anxiety (anxiolytic) effect, rats were dosed with MBDB (0.5-30 mg/kg, IP) or vehicle (saline) and 30-minutes later were tested in the open field for 30 minutes. This anxiety test capitalizes on a rodents' innate fear of wide-open spaces and propensity to hug the walls when placed into the open field. Therefore, a drug that increases the time spent in the center of the open field has anxiolytic activity and predicts utility for treating anxiety in humans.
# [1] = target: serotonin transporter (SERT) (Rattus norvegicus, UniProt P31652); experiment: [3H]5HT uptake saturation in rat brain synaptosomes with or without methylone; type: biochemical; conditions: two concentrations of methylone
# Sequence of serotonin transporter (SERT) (P31652 whole entry): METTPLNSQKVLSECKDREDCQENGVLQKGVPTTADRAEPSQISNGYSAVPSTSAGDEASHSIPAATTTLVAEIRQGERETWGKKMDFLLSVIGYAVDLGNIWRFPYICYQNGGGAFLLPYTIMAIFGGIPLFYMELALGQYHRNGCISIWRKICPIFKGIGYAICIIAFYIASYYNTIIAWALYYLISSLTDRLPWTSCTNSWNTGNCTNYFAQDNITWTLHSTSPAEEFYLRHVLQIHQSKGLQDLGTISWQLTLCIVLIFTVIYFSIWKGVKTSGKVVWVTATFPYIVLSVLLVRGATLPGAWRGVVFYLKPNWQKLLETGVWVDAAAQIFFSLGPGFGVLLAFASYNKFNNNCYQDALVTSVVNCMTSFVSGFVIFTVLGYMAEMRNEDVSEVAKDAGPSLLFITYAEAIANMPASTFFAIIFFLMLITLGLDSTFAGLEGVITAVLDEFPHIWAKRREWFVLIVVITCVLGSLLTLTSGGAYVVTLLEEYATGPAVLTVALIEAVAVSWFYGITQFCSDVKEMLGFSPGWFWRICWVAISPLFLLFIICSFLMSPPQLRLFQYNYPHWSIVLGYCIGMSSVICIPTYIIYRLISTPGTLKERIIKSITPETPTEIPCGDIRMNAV
smiles,measurement,setting,value
"CNC(C)C(=O)c1ccc2c(c1)OCO2 (centres unmarked) [methylone, 3,4-methylenedioxy-N-methylcathinone]",CAPS-5 scores decreased by,participants with PTSD; Day 3,8.4 points
same,MADRS scores decreased by,participants with PTSD; Day 3,8.2 points
same,drug-related SAEs,"participants with PTSD; Safety Population, N = 14",No drug-related SAEs occurred
same,participants with absence of Distressing Dreams symptom,participants with PTSD; after treatment,77%
same,participants with absence of Reduced Sleep symptom (MADRS),participants with PTSD; after treatment,62%
same,participants with absence of Sleep Disturbances symptom,participants with PTSD; after treatment,62%
same,participants much or very much improved (CGI-I),participants with PTSD; end of the study,all participants
same,locomotor activity (OFT) vs. vehicle,rats; methylone 5 mg/kg,no effect
same,locomotor activity (OFT) vs. vehicle,rats; methylone 15 or 30 mg/kg,significant increase in locomotor activity
same,time spent in the center of the open field vs. vehicle,rats,significantly increases the time spent in the center
same,time spent in the center of the open field vs. vehicle,rats; listed as Methylone,significantly increased center time
same,type of interaction at the SERT,[1]; [3H]5HT saturation curves,competitive
same,effect on Bmax of [3H]5HT uptake,[1],no decrease in Bmax
same,effect on Kd of [3H]5HT uptake,[1],right shifted
